Article PMC3486690 (Journal of inorganic biochemistry, 2012)

Target: T1, wild-type (WT) P450 BM3 heme domain (Priestia megaterium, UniProt P14779)
T1 sequence (P14779 1-464 limits assumed): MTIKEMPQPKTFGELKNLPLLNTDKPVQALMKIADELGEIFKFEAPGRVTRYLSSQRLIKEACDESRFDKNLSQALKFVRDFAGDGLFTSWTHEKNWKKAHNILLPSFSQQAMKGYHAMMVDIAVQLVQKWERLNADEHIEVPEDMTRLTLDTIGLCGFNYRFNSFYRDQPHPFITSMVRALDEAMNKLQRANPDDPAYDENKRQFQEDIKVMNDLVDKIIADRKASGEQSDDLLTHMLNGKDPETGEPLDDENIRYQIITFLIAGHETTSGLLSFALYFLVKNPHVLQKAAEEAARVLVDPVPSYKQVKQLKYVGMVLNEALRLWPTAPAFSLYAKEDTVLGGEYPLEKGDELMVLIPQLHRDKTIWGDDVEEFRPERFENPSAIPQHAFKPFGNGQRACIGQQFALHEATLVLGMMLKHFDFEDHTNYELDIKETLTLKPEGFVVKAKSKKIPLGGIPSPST
Test: optical titration, type-I difference spectra
Assay type: binding

Kd: 280 ± 25 µM
Structure (SMILES): CCCCCCCCCCCC(=O)O [LA, lauric acid]
